Test results as given in US20250215030A1, “STAT MODULATORS AND USES THEREOF” (Recludix Pharma, Inc., priority 2022, published 2025).

Key:
pSTAT6 (pY641-STAT6) = target: T1, pSTAT6 (pY641-STAT6) (Homo sapiens, UniProt P42226); assay: MSD-pSTAT-PBMC Assay (pSTAT6, IL-4 stimulated); assay type: cell-based; conditions: compound 3 hrs, then 1 ng/mL IL-4 for 10 min
T1 construct: host or cells: cryopreserved PBMC
T1 sequence (P42226 1-847): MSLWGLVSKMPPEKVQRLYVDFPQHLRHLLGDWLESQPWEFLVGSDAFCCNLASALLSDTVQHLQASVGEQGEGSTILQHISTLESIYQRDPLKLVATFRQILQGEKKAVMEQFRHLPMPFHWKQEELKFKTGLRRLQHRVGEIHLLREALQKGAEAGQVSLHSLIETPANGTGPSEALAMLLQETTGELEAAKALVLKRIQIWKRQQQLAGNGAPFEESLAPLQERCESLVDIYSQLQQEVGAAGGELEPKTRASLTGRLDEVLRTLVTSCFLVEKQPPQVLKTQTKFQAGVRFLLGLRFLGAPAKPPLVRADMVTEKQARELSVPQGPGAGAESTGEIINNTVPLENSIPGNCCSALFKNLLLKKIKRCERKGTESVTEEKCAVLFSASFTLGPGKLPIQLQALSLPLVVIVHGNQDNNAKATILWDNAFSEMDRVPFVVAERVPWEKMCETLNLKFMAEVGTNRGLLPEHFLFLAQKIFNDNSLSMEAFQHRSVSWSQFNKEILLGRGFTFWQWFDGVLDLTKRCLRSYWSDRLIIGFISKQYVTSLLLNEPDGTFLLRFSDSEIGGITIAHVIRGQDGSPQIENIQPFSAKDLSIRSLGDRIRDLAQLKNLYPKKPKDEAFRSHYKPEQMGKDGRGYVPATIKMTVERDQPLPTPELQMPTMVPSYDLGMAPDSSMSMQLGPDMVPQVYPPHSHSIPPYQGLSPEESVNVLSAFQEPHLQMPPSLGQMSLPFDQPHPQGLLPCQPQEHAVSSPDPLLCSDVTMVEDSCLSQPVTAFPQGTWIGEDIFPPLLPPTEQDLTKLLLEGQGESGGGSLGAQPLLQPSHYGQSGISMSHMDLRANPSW
Summary of the method: (§1)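 Phospho-STAT levels captured on anti-STAT3 or anti-STAT6 plates and detected with anti-pY705 or anti-pY641 antibodies (MSD read-out). Cryopreserved human PBMCs received compound for 3 h before a 10 min pulse of IL-6 (10 ng/mL, STAT3) or IL-4 (1 ng/mL, STAT6). IC50 fitted after unstimulated-background subtraction and DMSO normalization.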

pSTAT3 (pY705-STAT3) = target: T2, pSTAT3 (pY705-STAT3) (Homo sapiens, UniProt P40763); assay: MSD-pSTAT-PBMC Assay (pSTAT3, IL-6 stimulated); assay type: cell-based; conditions: PBMC, compound 3 hrs, then 10 ng/mL IL-6 for 10 min; MSD pY705-STAT3; read-out: pSTAT3
T2 construct: host or cells: cryopreserved PBMC
T2 sequence (P40763 whole entry): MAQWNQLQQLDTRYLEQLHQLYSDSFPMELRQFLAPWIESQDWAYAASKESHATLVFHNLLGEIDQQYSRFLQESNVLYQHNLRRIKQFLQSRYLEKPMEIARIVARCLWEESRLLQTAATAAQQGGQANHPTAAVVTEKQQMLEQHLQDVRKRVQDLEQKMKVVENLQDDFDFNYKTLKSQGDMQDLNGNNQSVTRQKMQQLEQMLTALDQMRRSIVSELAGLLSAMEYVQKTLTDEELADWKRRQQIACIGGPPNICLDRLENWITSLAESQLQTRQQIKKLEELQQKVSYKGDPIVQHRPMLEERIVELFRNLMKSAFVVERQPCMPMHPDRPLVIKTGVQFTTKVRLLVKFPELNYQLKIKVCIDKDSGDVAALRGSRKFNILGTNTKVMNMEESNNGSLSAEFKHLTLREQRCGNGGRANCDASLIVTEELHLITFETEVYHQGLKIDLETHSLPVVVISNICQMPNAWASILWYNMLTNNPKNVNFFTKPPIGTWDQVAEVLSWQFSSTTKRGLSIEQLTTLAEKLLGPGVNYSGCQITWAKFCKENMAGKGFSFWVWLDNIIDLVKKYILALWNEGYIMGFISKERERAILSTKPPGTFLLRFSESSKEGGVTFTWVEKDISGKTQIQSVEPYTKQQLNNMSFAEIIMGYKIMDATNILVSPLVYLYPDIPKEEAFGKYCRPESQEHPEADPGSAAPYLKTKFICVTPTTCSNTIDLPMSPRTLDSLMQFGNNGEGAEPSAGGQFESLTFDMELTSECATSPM
Summary of the method: as §1

IC50 (pSTAT6 (pY641-STAT6)) [µM]	IC50 (pSTAT3 (pY705-STAT3)) [nM]	Structure (SMILES)
> 3	< 100	COCC(C)(C)OC(=O)OCOP(=O)(OCOC(=O)OC(C)(C)COC)C(F)(F)c1ccc2sc(C(=O)N[C@H]3C[C@@H]4C[C@@H]4C[C@H]4CC[C@@H](C(=O)N5CC(C(=O)N6CCOCC6)C5)N4C3=O)cc2c1 [Compound 161, (((difluoro(2-(((3S,6S,7aS, 8aR,9aR)-3-(3-(morpholine-4-carbonyl)azetidine-1-carbonyl)-5-oxodecahydro-1H-cyclopropa [d]pyrrolo[1,2-a]azocin-6-yl)carbamoyl)benzo[b]thiophen-5-yl)methyl)phosphoryl)bis(oxy)) bis(methylene) bis(1-methoxy-2-methylpropan-2-yl) bis(carbonate)]
> 3	1000 to 3000	CCCC(=O)SCCOP(=O)(Cc1ccc2sc(C(=O)N[C@H]3C[C@@H]4C[C@@H]4C[C@H]4CC[C@@H](C(=O)N5CC(C(=O)N6CCOCC6)C5)N4C3=O)cc2c1)OCCSC(=O)CCC [Compound 149, S,S′-(((((2-(((3S,6S,7aS, 8aR,9aR)-3-(3-(morpholine-4-carbonyl)azetidine-1-carbonyl)-5-oxodecahydro-1H-cyclopropa[d]pyrrolo[1,2-a]azocin-6-yl)carbamoyl)benzo[b]thiophen-5-yl)methyl)phosphoryl)bis(oxy))bis(ethane-2,1-diyl)) dibutanethioate]

Structure (SMILES)	IC50 (pSTAT6 (pY641-STAT6)) [µM]	IC50 (pSTAT3 (pY705-STAT3)) [nM]
CC(C)OC(=O)CNP(=O)(Oc1ccccc1)C(F)(F)c1ccc2sc(C(=O)N[C@H]3C[C@@H]4C[C@@H]4C[C@H]4CC[C@@H](C(=O)N5CC(C(=O)N6CCOCC6)C5)N4C3=O)cc2c1 (stereo partly drawn) [Example 2, isopropyl ((difluoro(2-(((3S,6S,7aS,8aR,9aR)-3-(3-(morpholine-4-carbonyl)azetidine-1-carbonyl)-5-oxodecahydro-1H-cyclopropa[d]pyrrolo[1,2-a]azocin-6-yl)carbamoyl)benzo[b]thiophen-5-yl)methyl)(phenoxy)phosphoryl)glycinate]	> 3	> 3000
